ChEMBL document CHEMBL1130091, “Synthesis and cytotoxic evaluation of substituted sulfonyl-N-hydroxyguanidine derivatives as potential antitumor agents” (J Med Chem, 1997)
Converted amounts (≈) assume the structure as drawn.

Assays:
COLO 205 = experiment: Cytotoxic activity against human tumor COLO 205 cell line; format: functional, cell-based
HepG2 = experiment: Cytotoxic activity against human tumor HepG2 cell line; format: functional, cell-based
KB = experiment: Cytotoxic activity against human tumor KB cell line; format: functional, cell-based
MOLT-4 [1] = experiment: Cytotoxic Activity against human tumor MOLT-4 cell line; format: functional, cell-based
TSGH 8302 = experiment: Cytotoxic activity against human tumor TSGH 8302 cell line; format: functional, cell-based
MOLT-4 [2] = experiment: Cytotoxic Activity against human tumor MOLT-4 cell line with 20 micro g/mL; format: functional
Mus musculus [3] = experiment: Tumor growth inhibition determined at day 20 after tumor transplantation in mice at dose of 300 mg/kg oral administration; format: functional; conditions: 480 h
Mus musculus [4] = experiment: Antitumor activity against Murine K1735/M2 Melanoma xenograft expressed as body weight change from day 0 to 20 in mice at dose of 300 mg/kg oral administration; format: functional

| SMILES | IC50 (COLO 205) | IC50 (HepG2) | IC50 (KB) | IC50 (MOLT-4 [1]) | IC50 (TSGH 8302) | Inhibition (MOLT-4 [2]) | inhibition in vivo at 300 mg/kg (Mus musculus [3]) | Body weight change (Mus musculus [4]) |
| --- | --- | --- | --- | --- | --- | --- | --- | --- |
| Cc1c(S(=O)(=O)N/C(=N\O)Nc2ccc(Cl)c(Cl)c2)sc2ccc(Cl)cc12 | > 300 µg/mL | > 300 µg/mL | > 300 µg/mL | > 300 µg/mL | > 300 µg/mL | – | – | – |
| O=S(=O)(NC(=S)Nc1ccc(Cl)cc1)c1cc(S(=O)(=O)c2ccccc2)cs1 | 220 µg/mL (≈ 465 µM) | 214 µg/mL (≈ 452 µM) | 196 µg/mL (≈ 414 µM) | – | 217 µg/mL (≈ 459 µM) | – | – | – |
| O=[N+]([O-])c1ccc(Oc2c(Cl)cc(S(=O)(=O)N/C(=N\O)Nc3ccc(Cl)cc3)cc2Cl)cc1 | 12 µg/mL (≈ 22.6 µM) | 22 µg/mL (≈ 41.4 µM) | 12 µg/mL (≈ 22.6 µM) | 55 µg/mL (≈ 103 µM) | 7 µg/mL (≈ 13.2 µM) | – | – | – |
| O=S(=O)(N/C(=N\O)Nc1ccc(Cl)cc1)c1cc(S(=O)(=O)c2ccccc2)cs1 | 45 µg/mL (≈ 95.3 µM) | 175 µg/mL (≈ 371 µM) | 10 µg/mL (≈ 21.2 µM) | 22 µg/mL (≈ 46.6 µM) | 37 µg/mL (≈ 78.4 µM) | – | – | – |
| Cc1ccc(S(=O)(=O)N/C(=N\O)Nc2ccc(Cl)c(Cl)c2)cc1 | 10 µg/mL (≈ 26.7 µM) | 72 µg/mL (≈ 192 µM) | 8 µg/mL (≈ 21.4 µM) | 7 µg/mL (≈ 18.7 µM) | 67 µg/mL (≈ 179 µM) | – | – | – |
| O=S(=O)(N/C(=N\O)Nc1ccc(Cl)cc1)c1ccc(S(=O)(=O)c2ccccc2)s1 | 59 µg/mL (≈ 125 µM) | 92 µg/mL (≈ 195 µM) | 29 µg/mL (≈ 61.4 µM) | – | 41 µg/mL (≈ 86.9 µM) | – | – | – |
| O=S(=O)(NC(=S)Nc1ccc(Cl)cc1)c1ccccc1 | 91 µg/mL (≈ 278 µM) | > 300 µg/mL | 66 µg/mL (≈ 202 µM) | – | > 300 µg/mL | 63% | – | – |
| O=S(=O)(N/C(=N\O)Nc1ccc(Cl)cc1)c1cc2ccccc2s1 | 80 µg/mL (≈ 209 µM) | 176 µg/mL (≈ 461 µM) | 55 µg/mL (≈ 144 µM) | 57 µg/mL (≈ 149 µM) | 76 µg/mL (≈ 199 µM) | – | – | – |
| O=S(=O)(NC(=S)Nc1ccc(Cl)cc1)c1ccc(S(=O)(=O)c2ccccc2)s1 | 65 µg/mL (≈ 137 µM) | 216 µg/mL (≈ 457 µM) | 66 µg/mL (≈ 140 µM) | – | 79 µg/mL (≈ 167 µM) | 59% | – | – |
| O=S(=O)(N/C(=N\O)Nc1ccc(Cl)cc1)c1ccc(-c2cccs2)cn1 | 74 µg/mL (≈ 181 µM) | 121 µg/mL (≈ 296 µM) | 61 µg/mL (≈ 149 µM) | 75 µg/mL (≈ 183 µM) | 208 µg/mL (≈ 509 µM) | – | – | – |
| O=S(=O)(NC(=S)Nc1ccc(Cl)cc1)c1cccc2snnc12 | 50 µg/mL (≈ 130 µM) | 124 µg/mL (≈ 322 µM) | 63 µg/mL (≈ 164 µM) | – | 42 µg/mL (≈ 109 µM) | 55% | – | – |
| Cc1ccc(S(=O)(=O)NC(=O)Nc2ccc(Cl)cc2)cc1 [LY-181984] | 83 µg/mL (≈ 256 µM) | > 300 µg/mL | 72 µg/mL (≈ 222 µM) | – | 106 µg/mL (≈ 326 µM) | 33% | 64.7% | -1.2 g |
| O=S(=O)(N/C(=N\O)Nc1ccc(Cl)cc1)c1cc(C(F)(F)F)cc(C(F)(F)F)c1 | 58 µg/mL (≈ 126 µM) | 233 µg/mL (≈ 505 µM) | 57 µg/mL (≈ 123 µM) | 44 µg/mL (≈ 95.3 µM) | 66 µg/mL (≈ 143 µM) | – | – | – |
| CCCCOc1ccc(S(=O)(=O)N/C(=N\O)Nc2ccc(Cl)cc2)cc1 | 49 µg/mL (≈ 123 µM) | 63 µg/mL (≈ 158 µM) | 50 µg/mL (≈ 126 µM) | 18 µg/mL (≈ 45.2 µM) | 37 µg/mL (≈ 93 µM) | – | – | – |
| O=S(=O)(N/C(=N\O)Nc1ccc(Cl)cc1)c1cc2ccccc2o1 | > 200 µg/mL | > 200 µg/mL | 67 µg/mL (≈ 183 µM) | – | – | – | – | – |
| O=S(=O)(N/C(=N\O)Nc1ccc(Cl)cc1)c1cccc2snnc12 | 87 µg/mL (≈ 227 µM) | 45 µg/mL (≈ 117 µM) | 35 µg/mL (≈ 91.2 µM) | 33 µg/mL (≈ 86 µM) | 93 µg/mL (≈ 242 µM) | – | – | – |
| O=[N+]([O-])c1ccc(Oc2c(Cl)cc(S(=O)(=O)N/C(=N\O)Nc3ccc(Cl)cc3)cc2Cl)c(Cl)c1 | 6 µg/mL (≈ 10.6 µM) | 49 µg/mL (≈ 86.5 µM) | 7 µg/mL (≈ 12.4 µM) | 56 µg/mL (≈ 98.9 µM) | 7 µg/mL (≈ 12.4 µM) | – | 70.7% | 1.3 g |
| O=S(=O)(N/C(=N\O)Nc1ccc(Cl)cc1)c1ccccc1 | 53 µg/mL (≈ 163 µM) | 54 µg/mL (≈ 166 µM) | 46 µg/mL (≈ 141 µM) | 7 µg/mL (≈ 21.5 µM) | 52 µg/mL (≈ 160 µM) | – | – | – |
| Cc1c(S(=O)(=O)/N=C(\S)Nc2ccc(Cl)c(Cl)c2)sc2ccc(Cl)cc12 | 57 µg/mL (≈ 122 µM) | 62 µg/mL (≈ 133 µM) | 25 µg/mL (≈ 53.7 µM) | – | 59 µg/mL (≈ 127 µM) | 65% | – | – |
| Cc1ccc(S(=O)(=O)/N=C(\S)Nc2ccc(Cl)cc2)cc1 | 87 µg/mL (≈ 255 µM) | 232 µg/mL (≈ 681 µM) | 80 µg/mL (≈ 235 µM) | – | 125 µg/mL (≈ 367 µM) | 59% | – | – |
| Cc1c(S(=O)(=O)N/C(=N\O)Nc2ccc(Cl)cc2)sc2ccc(Cl)cc12 | 60 µg/mL (≈ 139 µM) | 140 µg/mL (≈ 325 µM) | 29 µg/mL (≈ 67.4 µM) | 38 µg/mL (≈ 88.3 µM) | 44 µg/mL (≈ 102 µM) | – | – | – |
| O=[N+]([O-])c1cccc(Cl)c1Oc1ccc(S(=O)(=O)N/C(=N\O)Nc2ccc(Cl)cc2)cc1 | > 100 µg/mL | > 100 µg/mL | 83 µg/mL (≈ 167 µM) | – | 53 µg/mL (≈ 107 µM) | – | – | – |
| O=S(=O)(N/C(=N\O)Nc1ccc(Cl)cc1)c1cc(-c2ccsc2)no1 | 52 µg/mL (≈ 130 µM) | > 300 µg/mL | 55 µg/mL (≈ 138 µM) | 9 µg/mL (≈ 22.6 µM) | 149 µg/mL (≈ 374 µM) | – | – | – |
| N#Cc1c(Cl)cccc1Oc1ccc(S(=O)(=O)N/C(=N\O)Nc2ccc(Cl)cc2)cc1 | 178 µg/mL (≈ 373 µM) | > 300 µg/mL | 39 µg/mL (≈ 81.7 µM) | 95 µg/mL (≈ 199 µM) | 168 µg/mL (≈ 352 µM) | – | – | – |
| Cc1c(S(=O)(=O)/N=C(\S)Nc2ccc(Cl)cc2)sc2ccc(Cl)cc12 | 52 µg/mL (≈ 121 µM) | 57 µg/mL (≈ 132 µM) | 61 µg/mL (≈ 141 µM) | – | 55 µg/mL (≈ 127 µM) | 12% | – | – |
| Cc1ccc(S(=O)(=O)N/C(=N\O)Nc2ccc(Cl)cc2)cc1 | 58 µg/mL (≈ 171 µM) | 49 µg/mL (≈ 144 µM) | 46 µg/mL (≈ 135 µM) | 6 µg/mL (≈ 17.7 µM) | 46 µg/mL (≈ 135 µM) | – | – | – |
| Cc1ccc(S(=O)(=O)/N=C(\S)Nc2ccc(Cl)c(Cl)c2)cc1 | 45 µg/mL (≈ 120 µM) | 120 µg/mL (≈ 320 µM) | 41 µg/mL (≈ 109 µM) | – | 55 µg/mL (≈ 147 µM) | 39% | – | – |
